Ends that are not written are not given here. Peptide text beside a SMILES is read from it.
Legend:
CD-1 male mice [1] = test: Amnestic effect on retention of footshock active avoidance training (FAAT) in T-maze, well-trained mice, post-training ICV administration; format: in vivo; conditions: for amnestic effect on retention of FAAT: well-trained mice, post-training ICV, 6.14 nmol of peptide per mouse except dose-response curves, retention tested one week later; for molar amnestic efficacy / potency compared with another peptide: dose-response curves or FIG. 19
Experimental: (§1) After 1 week in the laboratory, CD-1 male mice obtained from Charles River Breeding Laboratories were caged individually 24-28 hours prior to training and remained singly housed until retention was tested one week later. Animal rooms were on a 12 hour light/dark cycle with lights going on at the hour of 0600. Median body weight was 35 g, with a range of 33-38 g. Mice were assigned randomly to groups of 15 in the experiments reported in FIGS. 1-18 and groups of 10 for the dose-response curves (FIGS. 19 and 20) and were trained and tested between the hours of 0700 and 1500.
With the exception of Val Phe and Phe Val from Sigma, all peptides used in these studies were synthesized and analyzed to establish purity by standard methods at the Beckman Research Institute. Peptides were dissolved in: (1) saline; (2) 8% vol/vol dimethyl sulfoxide: (3) glacial acetic acid neutralized with […]; or (4) NaOH neutralized with HCl.
With exception of dose-response curves, the experiments reported below tested whether or not there was an amnestic: effect at 6.14 nmol of peptide per mouse.
The T-maze used for footshock active avoidance training (FAAT) consisted of a black plastic alley (46 cm long) with a start box at one end and two goal boxes (17.5 cm long) at the other. The start box was separated from the alley by a plastic guillotine door that prevented movement down the alley until training began. The alley was 12.5 cm deep and 9.8 cm wide. An electrifiable stainless steel rod floor ran throughout the maze.
Mice were not permitted to explore the maze before training. A block of training trials began when a mouse was placed in the start box. The guillotine door was raised and a muffled doorbell-type buzzer sounded simultaneously; footshock was 5 seconds later through a scrambled grid floor shocker (Colbourn Instruments, Model E13-08). The goal box first entered during the first set of trials was designated as "incorrect", and footshock was continued until the mouse entered the other goal box, which in all subsequent trials was designated "correct" for the particular mouse. At the end of each group of trials, the mouse was removed to its home cage.
As training proceeded, a mouse made one of two types of responses. A response latency longer than 5 seconds was classed as an escape from the footshock. A response latency less than or equal to 5 seconds was considered an avoidance, since the mouse avoided receiving a footshock. Two exclusion criteria were applied to reduce learning variability among mice, as follows. On the first training trials, mice with escape latencies greater than 20 seconds were discarded. Mice not having at least one errorless escape latency between 1.5 and 3.5 seconds on training trials 3 or 4 were excluded. […] Mice received five such training trials. One week after training and post-trial administration of vehicle alone or vehicle containing test substance, T-maze training was resumed until each mouse made five avoidance responses in six consecutive training trials (trials to criterion). The recall score was taken to be the percentage of tested mice remembering original training.
In these instances, training was performed under conditions that tend to maximize learning (sound intensity, 65 decibels; footshock current, 0.35 mA; intertrial interval, 45 seconds).

CD-1 male mice [2] = test: Memory-enhancing effect on retention of FAAT in T-maze, weakly trained mice (poor retention in vehicle controls), post-training ICV administration; format: in vivo
Experimental: as §1
With the exception of Val Phe and Phe Val from Sigma, all peptides used in these studies were synthesized and analyzed to establish purity by standard methods at the Beckman Research Institute. Peptides were dissolved in: (1) saline; (2) 8% vol/vol dimethyl sulfoxide: (3) glacial acetic acid neutralized with […]; or (4) NaOH neutralized with HCl. […] Analysis of variance showing insignificant differences among the latter, the value for the most frequently employed (No. 2 above) was used for comparison with groups receiving test peptides.
The T-maze used for footshock active avoidance training (FAAT) consisted of a black plastic alley (46 cm long) with a start box at one end and two goal boxes (17.5 cm long) at the other. […]

[3] = test system: hippocampal neurons in culture; conditions: reference 17; cited from earlier work
CD-1 male mice [4] = conditions: cited from earlier work; for amnestic effect on retention of FAAT (literature): post-training ICV in mice, references 1 and 12

NC(=O)CC[C@H](N)C(=O)N[C@@H](Cc1ccccc1)C(=O)N[C@@H](Cc1ccccc1)C(=O)NCC(=O)O [Gln Phe Phe Gly] (H-QFFG-OH)
amnestic effect on retention of FAAT (CD-1 male mice [1]): amnestic | memory-enhancing potency compared with other peptides (CD-1 male mice [2]; poor retention in vehicle controls): by far the most potent

CC(C)[C@H](N)C(=O)N[C@@H](Cc1ccccc1)C(=O)N[C@@H](Cc1ccccc1)C(=O)O [Val Phe Phe] (H-Val-Phe-Phe-OH)
molar amnestic efficacy / potency compared with another peptide (CD-1 male mice [1]): not significantly different from that of the β-A4 homologue | amnestic effect on retention of FAAT (CD-1 male mice [1]): amnestic | memory-enhancing effect (CD-1 male mice [2]; weakly trained animals, ICV): memory enhancer

CC(C)[C@H](N)C(=O)N[C@@H](Cc1ccccc1)C(=O)N[C@H](C(=O)O)[C@@H](C)O [Val Phe Thr] (H-Val-Phe-Thr-OH)
amnestic effect on retention of FAAT (CD-1 male mice [1]): amnestic

Pro Arg Pro Gly Pro Gln Gln Phe Phe Gly Leu Met-NH2 (PRPGPQQFFGLM-NH2) [Substance Pro]
effect on trophic and toxic effects of β-A4 [3]: counteract trophic and toxic effects of β-A4

VFFAEDVGSNK [β-(18-28)]
amnestic effect on retention of FAAT (literature) (CD-1 male mice [4]): amnestic

His Ser Asp Ala Val Phe Thr Asp Asn Tyr Thr Arg Leu Lys Gln Met Ala Val Lys Lys Tyr Leu Asn Ser Ile Leu Asn-NH2 (HSDAVFTDNYTRLKQMAVKKYLNSILN-NH2) [VIP]
amnestic effect on retention of FAAT (literature) (CD-1 male mice [4]): amnestic

VFFAE [Val Phe Phe Ala Glu]
molar amnestic efficacy / potency compared with another peptide (CD-1 male mice [1]): lesser potency | amnestic effect on retention of FAAT (CD-1 male mice [1]): amnestic

β-(1-18): β-A4 fragment of reference 1, probably misprint of β-(1-28)
amnestic activity at lower dose (literature) (CD-1 male mice [4]; 1.5 nmol per mouse, reference 1): active

KLVFFAE [Lys Leu Val Phe Phe Ala Glu]
amnestic effect on retention of FAAT (CD-1 male mice [1]): not amnestic

Reference: patent publication US6320024A, “Method for design of substances that enhance memory and improve the quality of life” (priority 1999, dated 2001)
